Test results: paper PMC9555560, “Fast relaxing red and near-IR switchable azobenzenes with chalcogen and halogen substituents: periodic trends, tuneable thermal half-lives and chalcogen bonding” (Chemical Science, 2022)

Experiments:
Format in all cases: physicochemical
[1] = UV-vis spectra of the E isomers (n → π* absorption maximum); settings: E isomer, DMSO
Excerpt: The UV-vis spectra of the (E)-X4 derivatives and (E)-X2,m-Y2 are shown in Fig. 3 (analogous spectra for the Z isomers, and deconvoluted spectra are available in the ESI ^†). […] The n → π* transition maximum, λmax, typically followed the order meta-H > –NMe2 > –OMe and ortho-S > Cl > F. It is clear from these experiments that the four ortho X substituents in the X4 derivatives are essential for achieving the deeply red-shifted tails which allows for red/near-IR triggered photo-isomerisation.
All UV-vis spectra were determined in DMSO solution. Extinction coefficients were determined by recording a UV-vis spectra for the E isomer at 10, 20, 30, 40 µM in DMSO respectively. The absorbance at the maximum of the π - π* transition of the E‐isomers was plotted against concentration (Beer-Lambert plot) to determine the molar extinction coefficient ε. For each slow relaxing compound, the E isomer sample at 40 µM was irradiated with the appropriate wavelength of light to generate the photo-stationary state, and another spectrum was run. This spectrum was normalised to units of ε and overlaid with the dark (100% E isomer) spectrum.

[2] = Half-life of the Z → E thermal isomerisation (UV-vis absorbance followed over time after irradiation); settings: for τ 1/2: 298 K
Experimental: The E → Z photo-isomerisation and half-life for the Z → E thermal isomerisation was evaluated for all derivatives (Fig. 7 and Table 1, see ESI ^† for original data). To our surprise, the half-lives for (Z)-X2,m-Y2 derivatives were in the order of hours to days for X = F and Cl: the effect of the meta group was not as drastic as anticipated. We typically observed a ∼4 fold decrease in half-life by substituting H with OMe, and a further 3-fold drop from OMe to NMe2 for X = F, Cl and SEt. The nature of the ortho-substituent appeared to be the main influence on τ1/2 (F > Cl ≫ SEt). However, these predictable trends observed for the meta-substitution allow for precise tuning of thermal half-lives. The photo-stationary states (PSSs) of these derivatives ranged from 48–77% Z isomer (Table 1).
All UV-vis spectra were determined in DMSO solution. […]
Lambert plot) to determine the molar extinction coefficient ε. For each slow relaxing compound, the E isomer sample at 40 µM was irradiated with the appropriate wavelength of light to generate the photo-stationary state, and another spectrum was run. This spectrum was normalised to units of ε and overlaid with the dark (100% E isomer) spectrum. […]
Photo-irradiation of liquid samples was carried out using Thorlabs high-power mounted LEDs (models […]
M530L4 (green, 530 nm); in-house custom built set-ups using optical components supplied by Thorlabs, as described in reference 2
Equation y = y0 + A1*exp(-(x-x0)/t1
Figure S327. Lifetime plot of (Z)-Br4-NHBoc based on following UV-Vis absorbance over time after irradiation with 625 nm light (rt, DMSO). Data consistent with NMR half-life data.
Figure S328. Reversible of switching of I4-NHBoc over time after irradiation with 6 60 nm light (rt, DMSO). Dots : raw data, Line: 1st order Exponential Fit […]

[3] = GSH stability study (decay of absorbance in phosphate buffer with 10 mM glutathione); settings: for t1 of 1st order exponential decay fit (decomposition with GSH): 100 mM phosphate buffer containing 10 mM GSH degassed with N2, 298 K; for τ 1/2 (10 mM GSH): 100 mM phosphate buffer pH 7 containing 10 mM GSH, degassed with N2, 298 K, para substituent CH2NH2·TFA
Experimental: Finally, the stability of the X4 derivatives were assessed by exposing them to the highest expected intracellular concentration of glutathione (GSH, 10 mM).[28] This was achieved by treating the Boc-protected amino-methyl derivatives X4-NHBoc (X = F, Cl, Br, I, OMe, SMe and SeMe) with TFA to remove the protecting groups. The resulting ammonium-appended AB derivative was dissolved in N2-degassed 100 mM phosphate buffer at pH 7 containing 10 mM GSH, and the changes in absorbance were monitored over an extended period. […] Strong σ-donating substituents are also proposed to aid diazo lone pair protonation, and subsequent GSH attack.[25]
A 10 mM reduced glutathione (GSH) solution was prepared in degassed 100 mM sodium phosphate buffer (at least 15 minutes of N 2 bubbled through the buffer solution prior to addition to GSH). The absorption of the solution was measured periodically at 25 °C, then fitted to a 1 st Order exponential […]
Equation y = y0 + A1*exp(-(x-x0)
Figure S366. Decomposition of F4-CH2NH2•TFA Conditions: 100 mM phosphate buffer containing 10 mM GSH degassed with N2. T = 298 K. […]

[4] = Z → E thermal isomerisation, DMSO

CCSc1cc(CNC(=O)OC(C)(C)C)c(N(C)C)cc1/N=N/c1cc(N(C)C)c(CNC(=O)OC(C)(C)C)cc1SCC [(SEt)2,m-(NMe2)2]
λ max of n → π* transition [1]: 543.0 nm | τ 1/2 [2, 4]: 0.0389 h

CC(C)(C)OC(=O)NCc1cc(I)c(/N=N/c2c(I)cc(CNC(=O)OC(C)(C)C)cc2I)c(I)c1 [I]
t1 of 1st order exponential decay fit (decomposition with GSH) [3]: 3971 ± 9.47 s | τ 1/2 (10 mM GSH) [3]: 0.7 h

COc1cc(CNC(=O)OC(C)(C)C)cc(OC)c1/N=N/c1c(OC)cc(CNC(=O)OC(C)(C)C)cc1OC [(OMe)4-NHBoc]
λ max of n → π* transition [1]: 459.8 nm | τ 1/2 [2, 4]: 197 h

CCSc1cc(CNC(=O)OC(C)(C)C)ccc1/N=N/c1ccc(CNC(=O)OC(C)(C)C)cc1SCC [(SEt)2,m-H2]
λ max of n → π* transition [1]: 431.3 nm | τ 1/2 [2, 4]: 44 m

CCOC(=O)c1cc(I)c(N=Nc2c(I)cc(C(=O)OCC)cc2I)c(I)c1 [I4-ester]
λ max of n → π* transition [1]: 519.6 nm | τ 1/2 [2, 4]: 0.0128 h

CC(C)Sc1cc(CNC(=O)OC(C)(C)C)cc(SC(C)C)c1/N=N/c1c(SC(C)C)cc(CNC(=O)OC(C)(C)C)cc1SC(C)C [(S^iPr)4-NHBoc]
λ max of n → π* transition [1]: 500.4 nm | τ 1/2 [2, 4]: 3 m

COc1cc(N=Nc2cc(OC)c(CNC(=O)OC(C)(C)C)cc2F)c(F)cc1CNC(=O)OC(C)(C)C [F2,m-OMe2]
λ max of n → π* transition [1]: 387.1 nm | τ 1/2 [2, 4]: 77 h

[N-]=[N+]=NCc1cc(I)c(/N=N/c2c(I)cc(CN=[N+]=[N-])cc2I)c(I)c1 [I4-N3]
λ max of n → π* transition [1]: 514.4 nm | τ 1/2 [2, 4]: 3 m

CCOC(=O)c1cc([Se]C)c(/N=N/c2c([Se]C)cc(C(=O)OCC)cc2[Se]C)c([Se]C)c1 [(SeMe)4-ester]
λ max of n → π* transition [1]: 588.8 nm | τ 1/2 [2, 4]: 0.000694 h

CC(C)(C)OC(=O)NCc1cc(Br)c(N=Nc2c(Br)cc(CNC(=O)OC(C)(C)C)cc2Br)c(Br)c1 [Br4-NHBoc]
λ max of n → π* transition [1]: 465.9 nm | τ 1/2 [2, 4]: 12 h | t1 of exponential fit (lifetime plot of Z isomer) ([2]; after irradiation with 625 nm light, rt, DMSO): 1011 ± 6.62 min

CC(C)(C)OC(=O)NCc1ccc(N=Nc2ccc(CNC(=O)OC(C)(C)C)cc2F)c(F)c1 [F2,m-H2]
λ max of n → π* transition [1]: 452.5 nm | τ 1/2 [2, 4]: 75 h

CCOP(=O)(OCC)c1ccccc1/N=N/c1ccccc1P(=O)(OCC)OCC [(PO(OEt)2)2,m-H]
λ max of n → π* transition [1]: 458.2 nm

CN(C)c1cc(N=Nc2cc(N(C)C)c(CNC(=O)OC(C)(C)C)cc2Cl)c(Cl)cc1CNC(=O)OC(C)(C)C [Cl2,m-(NMe2)2]
λ max of n → π* transition [1]: 432.1 nm | τ 1/2 [2, 4]: 4 h

CC(C)(C)OC(=O)NCc1cc(F)c(N=Nc2c(F)cc(CNC(=O)OC(C)(C)C)cc2F)c(F)c1 [F4-NHBoc]
λ max of n → π* transition [1]: 454 nm | τ 1/2 [2, 4]: 1.25y

CC(C)(C)OC(=O)NCc1cc(I)c(N=Nc2c(I)cc(CNC(=O)OC(C)(C)C)cc2I)c(I)c1 [I4-NHBoc]
λ max of n → π* transition [1]: 514.3 nm | τ 1/2 [2, 4]: 5 m | τ1/2 (Z) ([2]; Z → E thermal isomerisation, printed in Fig. 1 / Fig. 8): 5 min

CCSc1cc(CNC(=O)OC(C)(C)C)cc(SCC)c1/N=N/c1c(SCC)cc(CNC(=O)OC(C)(C)C)cc1SCC [(SEt)4-NHBoc]
λ max of n → π* transition [1]: 514.5 nm | τ 1/2 [2, 4]: 3 m

CSc1cccc(SC)c1/N=N/c1c(SC)cccc1SC [(SMe)4-H]
λ max of n → π* transition [1]: 514.2 nm | τ 1/2 [2, 4]: 5 m

CC(C)(C)OC(=O)NCc1cc(Cl)c(/N=N/c2c(Cl)cc(CNC(=O)OC(C)(C)C)cc2Cl)c(Cl)c1 [Cl]
t1 of 1st order exponential decay fit (decomposition with GSH) [3]: 14241.72745 ± 14.23 s | τ 1/2 (10 mM GSH) [3]: 2.7 h
